Results from patent US20250235531A1, “MUCOSAL ADMINISTRATION METHODS AND FORMULATIONS” (priority 2022, published 2025).

Experiments:
[1] = Luciferase mRNA nanoparticle biophysical data (DLS diameter and PDI, Ribogreen encapsulation); assay type: physicochemical; details: luciferase mRNA nanoparticles (IL1:DSPC:cholesterol:PEG-DMG-2K) modified with the lipid amine; for Diameter (nm) / PDI: DLS; for % Encapsulation (Ribogreen): Ribogreen assay
Experimental: Lipids are dissolved in ethanol at a concentration of 24 mg/mL and molar ratios of 49.0:11.2:39.3:0.5 (IL1:DSPC:cholesterol:PEG-DMG-2K) and mixed with the acidification buffer (45 mM acetate buffer at pH 4). The lipid solution and acidification buffer are mixed using a multi-inlet vortex mixer at a 3:7 volumetric ratio of lipid:buffer for mixer 1 and mixer 2 and a 1:3 volumetric ratio of lipid:buffer (25% ethanol) for mixer 3. After a 5 second residence time, the resulting nanoparticles are mixed with 55 mM sodium acetate at pH 5.6 at a volumetric ratio of 5:7 of nanoparticle:buffer. See Table 24 for mixing parameters. The resulting dilute nanoparticles are then buffer exchanged and concentrated using tangential flow filtration (TFF) into a final buffer containing 5 mM sodium acetate pH 5.0. Then a 70% sucrose solution in 5 mM acetate buffer at pH 5 is subsequently added.
The resulting nanoparticles at a lipid concentration of 7.33 mg/mL in 5 mM acetate (pH 5) and 75 g/L sucrose are mixed with mRNA (luciferease) at a concentration of 0.625 mg/mL in 42.5 mM sodium acetate pH 5.0, with N:P of 4.93. The nanoparticle solution and nanoparticles are mixed using a multi-inlet vortex mixer at a 3:2 volumetric ratio of nanoparticle:mRNA. Once loaded with mRNA, these intermediate nanoparticles undergo a 300 second residence time prior addition of neutralization buffer containing 120 mM TRIS pH 8.12 at a volumetric ratio of 5:1 of nanoparticle:buffer.
For HeLa studies evaluating luciferase protein expression, PEG-DMG-2K dissolved in a 20 mM TRIS buffer (pH 7.5) is added to the neutralized intermediate nanoparticle solution at a ratio of 1:6, bringing the solution to the final molar ratios of IL1:DSPC:cholesterol:PEG-DMG-2K of 48.5:11.1:38.9:1.5%. This nanoparticle formulation is then modified with lipid amines. In a typical example, nanoparticle formulation at a concentration of 0.18 mg/mL mRNA and a 0.56 mL volume is modified with lipid amine SA50 (467.2 nmol) prepared in buffer containing 20 mM IRIS, 14.3 mM sodium acetate, 32 g/L sucrose and 140 mM NaCl—pH 7.5 at a volumetric ratio of 1:1 of nanoparticle: buffer.
Resulting nanoparticle suspensions are filtered through a 0.8/0.2 μm capsule filter and filled into glass vials at an mRNA strength of about 0.1-1 mg/mL Biophysical data (Diameter and PDI from DLS measurements and % Encapsulation using Ribogreen assay) for luciferase mRNA nanoparticles with lipid amines is shown in Table 26.

HeLa = assay: Protein expression in human cervical cancer epithelial cell (HeLa) model, NPI-Luc mRNA LNPs; assay type: cell-based; details: LNP core Compound 18, DSPC
Experimental: NPI-Luc is a dual read reporter made by adding a 5×V5 tag and a C-myc nuclear localization sequence at the N-terminus of Firefly Luciferase to enhance the signal to noise ratio. Protein expression can be detected using OneGLo assays with luminescence readout or by immunofluorescence with anti-V5 antibodies. Protein expression was evaluated according to the procedure outlined in Example 6. The LNPs are dosed in 4 wells and the average response was reported. For the HeLa assay the luminescence read (RLU) were normalized to cell counts.

[2] = Nanoparticle zeta potential (Malvern Zetasizer); assay type: physicochemical; details: [mRNA] 0.01 mg/mL in 0.1×PBS, core LNP Compound 18, DSPC, Cholesterol, and DMG-PEG 2K
Experimental: LNPs were prepared according to Example 1. Zeta potential was measured by diluting LNPs to [mRNA]0.01 mg/mL in 0.1×PBS on a Malvern Zetasizer (Nano ZS).

healthy HBE cells = assay: LNP cellular uptake and protein expression in healthy HBE cells; assay type: cell-based, human; details: NPI-Luc mRNA, LNP core Compound 18, DSPC, Cholesterol, and DMG-PEG 2K
Experimental: NP-Luc is a dual read reporter made by adding a 5×V5 tag and a C-myc nuclear localization sequence at the N-terminus of Firefly Luciferase to enhance the signal to noise ratio. Protein expression can be detected using OneGLo assays with luminescence readout or by immunofluorescence with anti-V antibodies. LNP cellular uptake and protein expression was evaluated according to the procedure outlined in Example 5.

[3] = system: respiratory epithelium (trachea, bronchi); assay: LNP protein expression in rat respiratory epithelium after single intratracheal dose (anti-V5 IHC); details: intratracheal ~1.2 mpk, NPI-Luc mRNA, LNP core Compound 18, DSPC, Cholesterol, and DMG-PEG 2K
Experimental: (§1) Animals are anesthetized under isoflurane. The tongue is displaced and a small diameter cannula is inserted into the trachea (oropharyngeal route). The cannula tip is passed through the vocal chords, down the trachea so that the tip is very near, but not touching, the carina. Upon placement, 50 μL (mouse) or 200 μL (rat) of formulation is infused into the lungs. After 30 seconds upright, animads are released into a recovery cage and returned to their respective cages once recovered.
(§2) Trachea, lungs and for the aerosol study nasal cavities, nasopharynx and larynx are collected for analysis. Lungs are inflated with 10% NBF fixative and trachea tied off to maintain inflation. Lungs are removed en bloc with attached trachea, bronchi and lobes. […]
(§3) IHC was performed on FFPE sections using the Leica Bond RX autostainer. NPI-Luc protein expression was detected by anti-V5 tag antibody at a 1:100 dilution. V5 antibody was detected with the Bond Polymer Refine Detection kit followed by hematoxylin and bluing reagent counterstain. […] Trachea, lung and/or nasal cavity images were analyzed to capture total tracheal, bronchial or nasal epithelial cells and data expressed when appropriate as % V5 positive epithelial cells per total epithelial cells per animal. […]

[4] = system: respiratory epithelium (trachea, bronchi); assay: LNP protein expression in mouse respiratory epithelium after single intratracheal dose (anti-V5 IHC); details: intratracheal ~0.7 mpk, NPI-Luc mRNA, LNP core Compound 18, DSPC, Cholesterol, and DMG-PEG 2K
Experimental: as §1, §2, §3

Row | Structure (SMILES) | Diameter (nm) [1] [nm] | PDI [1] | % Encapsulation (Ribogreen) [1] [%] | Zeta Potential (mV) ([2]; β-sitosterol) | Average accumulation of LNP in healthy HBE (% positive cells) (healthy HBE cells; β-sitosterol) | Average protein expression in healthy HBE (% V5 positive cells) (healthy HBE cells; β-sitosterol) | further results
1 | CC[C@H](CC[C@@H](C)[C@H]1CC[C@H]2[C@@H]3CC=C4C[C@@H](SSCCC(=O)N(CCC5CC(N)C5)CCC5CC(N)C5)CC[C@]4(C)[C@H]3CC[C@]12C)C(C)C.Cl.Cl (stereo partly drawn) [SA187, N,N-bis(2-(3-aminocyclobutyl)ethyl)-3-(((3S,8S,9S,10R,13R,14S,17R)-17-((2R,5R)-5-ethyl-6-methylheptan-2-yl)-10,13-dimethyl-2,3,4,7,8,9,10,11,12,13,14,15,16,17-tetradecahydro-1H-cyclopenta[a]phenanthren-3-yl)disulfaneyl)propanamide dihydrochloride] | 73 | 0.17 | 99.0 | – | – | – | –
2 | CC[C@H](CC[C@@H](C)[C@H]1CC[C@H]2[C@@H]3CC=C4C[C@@H](OC(=O)N(CCCCNCCC(C)N)CCC(C)N)CC[C@]4(C)[C@H]3CC[C@]12C)C(C)C.Cl.Cl.Cl (stereo partly drawn) [SA111, (3S,8S,9S,10R,13R,14S,17R)-17-((2R,5R)-5-ethyl-6-methylheptan-2-yl)-10,13-dimethyl-2,3,4,7,8,9,10,11,12,13,14,15,16,17-tetradecahydro-1H-cyclopenta[a]phenanthren-3-yl (3-aminobutyl)(4-((3-aminobutyl)amino)butyl)carbamate trihydrochloride] | 76 | 0.18 | 99.6 | – | – | – | –
3 | CC(C)c1ccc2c(c1)CC[C@H]1[C@](C)(CNC(=O)CCN(C)C)CCC[C@]21C [SA16] | – | – | – | – | – | – | Average protein expression per cell (RLU per cell) (HeLa; Cholesterol, and Compound 428): 14.5 RLU per cell
4 | CC[C@H](CC[C@@H](C)[C@H]1CC[C@H]2[C@@H]3CC=C4C[C@@H](OC(=O)N(CCC5CC(N)C5)CCC5CC(N)C5)CC[C@]4(C)[C@H]3CC[C@]12C)C(C)C.Cl.Cl (stereo partly drawn) [SA186, (3S,8S,9S,10R,13R,14S,17R)-17-((2R,5R)-5-ethyl-6-methylheptan-2-yl)-10,13-dimethyl-2,3,4,7,8,9,10,11,12,13,14,15,16,17-tetradecahydro-1H-cyclopenta[a]phenanthren-3-yl bis(2-(3-aminocyclobutyl)ethyl)carbamate dihydrochloride] | 73 | 0.14 | 99.3 | – | – | – | –
5 | CC(C)CCC[C@@H](C)[C@H]1CC[C@H]2[C@@H]3CC=C4C[C@@H](OC(=O)NCCNC(=N)N)CC[C@]4(C)[C@H]3CC[C@]12C [SA23] | – | – | – | 12.7 | 34.3 | 9.1 | –
6 | CC(C)CCC[C@@H](C)[C@H]1CC[C@H]2[C@@H]3CC=C4C[C@@H](OC(=O)NCCCNCCCCN)CC[C@]4(C)[C@H]3CC[C@]12C [SA30] | – | – | – | 8.7 | 49.9 | 11.9 | –
7 | CC(C)CCC[C@@H](C)[C@H]1CC[C@H]2[C@@H]3CC=C4C[C@@H](OC(=O)CCC(=O)N(CCCN)CCCCN)CC[C@]4(C)[C@H]3CC[C@]12C [SA31] | – | – | – | 8.6 | 43.2 | 11.1 | –
8 | CC(C)CCC[C@@H](C)[C@H]1CC[C@H]2[C@@H]3CC=C4C[C@@H](OC(=O)NCCN(C)C)CC[C@]4(C)[C@H]3CC[C@]12C [SA4] | – | – | – | – | – | – | Average protein expression per cell (RLU per cell) (HeLa; Cholesterol, and Compound 428): 248.5 RLU per cell
9 | CC(C)CCC[C@@H](C)[C@H]1CC[C@H]2[C@@H]3CC=C4C[C@@H](OC(=O)N(CCCN)CCCCN)CC[C@]4(C)[C@H]3CC[C@]12C [SA29] | – | – | – | 8.3 | 56.2 | 12.1 | –
10 | CC(C)CCC[C@@H](C)[C@H]1CC[C@H]2[C@@H]3CC=C4C[C@@H](OC(=O)CCCC(=O)N(CCC5CC(N)C5)CCC5CC(N)C5)CC[C@]4(C)[C@H]3CC[C@]12C.Cl.Cl (stereo partly drawn) [SA188, (3S,8S,9S,10R,13R,14S,17R)-10,13-dimethyl-17-((R)-6-methylheptan-2-yl)-2,3,4,7,8,9,10,11,12,13,14,15,16,17-tetradecahydro-1H-cyclopenta[a]phenanthren-3-yl 5-(bis(2-(3-aminocyclobutyl)ethyl)amino)-5-oxopentanoate dihydrochloride] | 80 | 0.13 | 99.6 | – | – | – | –
11 | CC[C@H](CC[C@@H](C)[C@H]1CC[C@H]2[C@@H]3CC=C4C[C@@H](OC(=O)N(CC56CC(N)(C5)C6)CC56CC(N)(C5)C6)CC[C@]4(C)[C@H]3CC[C@]12C)C(C)C.Cl.Cl [SA189, (3S,8S,9S,10R,13R,14S,17R)-17-((2R,5R)-5-ethyl-6-methylheptan-2-yl)-10,13-dimethyl-2,3,4,7,8,9,10,11,12,13,14,15,16,17-tetradecahydro-1H-cyclopenta[a]phenanthren-3-yl bis((3-aminobicyclo[1.1.1]pentan-1-yl)methyl)carbamate dihydrochloride] | 78 | 0.33 | 98.1 | – | – | – | –
12 | CC(C)CCC[C@@H](C)[C@H]1CC[C@H]2[C@@H]3CC=C4C[C@@H](OC(=O)N(CCCN)CCCCNCCCN)CC[C@]4(C)[C@H]3CC[C@]12C [SA3] | – | – | – | – | – | – | Zeta Potential (mV) [2]: 10.6 mV; Average % V5 positive cells/total cells ([3]; Rat Bronchi (left and right lung)): 4.95 % V5 positive cells/total cell; Average % V5 positive cells/total cells ([3]; Rat Trachea): 2.97 % V5 positive cells/total cell; Average accumulation of LNP in healthy HBE (% positive cells) (healthy HBE cells): 43.7 % positive cells; Average protein expression in healthy HBE (% V5 positive cells) (healthy HBE cells): 9.4 % V5 positive cells; Average % V5 positive cells/total cells ([4]; Mouse Bronchi (left lung)): 9.33 % V5 positive cells/total cell; Average % V5 positive cells/total cells ([4]; Mouse Trachea): 40.7 % V5 positive cells/total cell; Average protein expression per cell (RLU per cell) (HeLa; Cholesterol, and DMG-PEG 2K): 111.0 RLU per cell
